Laboratory results published in article PMC9731865, “Gambogic acid and juglone inhibit RNase P through distinct mechanisms” (The Journal of Biological Chemistry, 2022).
Where “and” joins values, the source holds several entries; their conditions need not be identical. Equal entries are not always repeated. Where two headings read alike, the source gives them in different places.

Key:
T. maritima RNase P = T. maritima RNase P inhibition (literature); type: biochemical; conditions: own PRORP IC50 against the cited T. maritima IC50 of 12.8 μM (ref 28)
PRORP1 = molecular target: T1, PRORP1 (Arabidopsis thaliana, UniProt Q66GI4); assay: Mode of inhibition of gambogic acid, PRORP1 activity at varying pre-tRNA and inhibitor; type: biochemical, A. thaliana
T1 construct: made in house
T1 sequence (Q66GI4 77-572): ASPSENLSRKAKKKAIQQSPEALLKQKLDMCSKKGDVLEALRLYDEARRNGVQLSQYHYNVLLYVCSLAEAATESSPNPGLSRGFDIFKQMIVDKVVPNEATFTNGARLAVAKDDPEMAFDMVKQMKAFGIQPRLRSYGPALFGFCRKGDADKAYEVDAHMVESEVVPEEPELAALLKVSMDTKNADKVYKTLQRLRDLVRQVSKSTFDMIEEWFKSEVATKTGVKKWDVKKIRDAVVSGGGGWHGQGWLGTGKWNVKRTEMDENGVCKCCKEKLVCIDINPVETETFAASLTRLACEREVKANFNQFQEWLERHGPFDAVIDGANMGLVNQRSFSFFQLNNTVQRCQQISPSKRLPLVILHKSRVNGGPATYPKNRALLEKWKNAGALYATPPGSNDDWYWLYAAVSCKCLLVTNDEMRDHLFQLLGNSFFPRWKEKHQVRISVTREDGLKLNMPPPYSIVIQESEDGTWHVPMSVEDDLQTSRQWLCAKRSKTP
Experimental: Equation 2 was fit to each data set to calculate the values of kcat,app, and KM,app, and (kcat/KM)app. […] The dotted line simulates the fit of Equation 3 with n = 1. C, kcat/KM,app values for PRORP1 activity vary little as a function of the gambogic acid concentration. Error bars indicate standard errors obtained from fitting the data.
To identify the mode of inhibition of gambogic acid, PRORP1 activity was measured with varying pre-tRNA and gambogic acid concentrations. The Michaelis–Menten equation (Equation 2) was fit to each curve individually to calculate the apparent turnover rate constant (kcat,app) and apparent substrate concentration at half maximal activity (KM,app). […] (3) kcat,app=kcat/1+([I]/KI)^n (4) KM,app=KM/1+([I]/KI)^n

SMILES | times more potent against PRORP than T. maritima RNase P (T. maritima RNase P) | Hill coefficient (n), fit of Equation 3 (PRORP1; dependence of kcat,app on gambogic acid concentration) | Ki (PRORP1; global fit, read-out: KI, global fit analysis (Equations 2, 3, 4)) | mode of inhibition of PRORP1 (PRORP1; kcat,app decreases, (kcat/KM)app unchanged) | Ki (PRORP1; uncompetitive model, gambogic acid 0-1.6 μM, read-out: inhibition constant (KI), fit of Equation 3 to kcat,app)
O=C1C=CC(=O)c2c(O)cccc21 [juglone, 5-hydroxy-1,4-naphthalenedione] | about 10 times | – | – | – | –
CC(C)=CCC[C@]1(C)C=Cc2c(O)c3c(c(CC=C(C)C)c2O1)O[C@]12C(=C[C@@H]4C[C@H]1C(C)(C)O[C@@]2(C/C=C(/C)C(=O)O)C4=O)C3=O [gambogic acid] | – | 4 and 3.8 ± 0.8 | 1100 ± 30 nM | uncompetitive inhibitor | 1080 ± 50 nM
